{"source": "paper PMC3454376", "about": "“Salidroside Improves Behavioral and Histological Outcomes and Reduces Apoptosis via PI3K/Akt Signaling after Experimental Traumatic Brain Injury” (PLoS ONE, 2012)", "key": {"[1]": {"test_system": "cytosolic CytoC", "assay": "Western blot, cytosolic fraction of injured cortex", "type": "in vivo, mice", "conditions": "20 mg/kg ip 10 min after CCI", "experimental": "(§1) Three sets of experiments were performed. The first set was to investigate the protective effects of salidroside. All animals were randomized into 1 of 3 groups (sham injury, CCI + vehicle, CCI + SALD 20). Surgery/injury, behavioral testing, and tissue analyses were performed by different individuals. Behavioral testing and tissue analyses were performed by individuals blinded to the treatment group. Salidroside (Cayman Chemical, Ann Arbor, MI, USA) dissolved in normal saline (0.25 mL) or a corresponding volume of vehicle (saline) was administered intraperitoneally 10 min following injury. Testing after injury was completed as follows: 1) behavioral testing at days 1, 4, 7, 14, 21, and 28 (n = 8–10 mice/group); 2) cresyl violet staining at day 28 (n = 9 mice/group); 3) histology, determination of brain water content, and western blot analysis at day 1 or 3 (n = 5–6 mice/group). To determine the optimal dose of salidroside, a pilot study was performed using 2 different doses (20 and 50 mg/kg) administered 10 min after injury, and neurological deficits and tissue damage were evaluated as the main outcomes. […] The second set of experiment was to assess the effect of the inhibition of PI3K/Akt with the specific PI3K inhibitor, LY294002 (Cell Signaling Technology, Danvers, MA, USA), on salidroside effects. Animals were randomized into 4 groups. Mice received either: 1) icv pretreatment of LY294002 followed by SALD 20 after CCI (S20Y group); or 2) icv pretreatment of saline (vehicle control) followed by SALD 20 after CCI (S20V group). 3) Mice were infused icv with saline and were subjected to sham injury. 4) Mice were infused icv with LY294002 and were subjected to sham injury. Testing after injury was completed as follows: 1) cresyl violet staining at day 28 (n = 6 mice/group); 2) western blot analysis at day 1 (n = 6 mice/group). The third set of experiment was performed to examine the neuroprotective time window afforded by salidroside. Mice received intraperitoneal SALD 20 or vehicle (saline) at 3 or 6 h following CCI and were sacrificed 1 day later for FJB staining and western blot analysis (n = 6 mice/group). Brains of injured or sham animals were collected 1 day and 3 days post CCI or sham surgery, and a 4 mm coronal section from the injured area over the parietal cortex and ipsilateral hippocampus were collected. […] Protein concentration was determined by Bradford reagent spectrophotometrically at A595. […] The relative intensity of protein signals was normalized to the corresponding β-actin intensity and was quantified by densitometric analysis with the use of Image J software. […]"}, "[2]": {"test_system": "cytosolic Smac/DIABLO", "assay": "Western blot, cytosolic fraction of injured cortex", "type": "in vivo, mice", "conditions": "20 mg/kg ip 10 min after CCI, P<0.05", "experimental": "as §1"}, "[3]": {"test_system": "primary cultured cortical neurons", "assay": "MTT cell viability after in vitro neuronal stretch injury", "type": "cell-based, C57BL/6 mice", "conditions": "added immediately after injury, MTT at 24 h, stretch alone 61.8±1.5%", "experimental": "All culture medium supplies were from Invitrogen (Invitrogen, Carlsbad, CA, USA). Cortical neuronal cells were prepared from embryonic day 15.5 C57BL/6 mice and cultured in serum-free conditions as previously described. Briefly, the cortices were isolated and digested in 0.5 mg/mL papain at 37°C for 15 min, followed by dissociation in Hibernate-A medium (containing B27 supplement) by aspirating trituration. The cells were then plated onto poly-L-lysine-coated 6-well silastic culture plates (Flexcell International Corporation, Hillsborough, NC, USA) at a density of 5×10^4 cells/cm^2 and maintained in Neurobasal medium supplemented with B27, 10 units/mL penicillin, […], and 0.5 mg/mL glutamine. Four days after plating, 50% of the medium was removed and replaced with fresh medium. The cells were cultured at 37°C in a humidified tri-gas incubator (5%O2, 90% N2, and 5% CO2) and were used at day 10 in vitro. The cortical cultures contain mostly neurons and there were <2% of glia cells, as determined by immunohistochemical staining.\nCultures were stretched by rapid deformation of the silastic culture plates (Flexplates), using the Cell Injury Controller II (Custom Design and Fabrication; Virginia Commonwealth University, Richmond, VA, USA) as previously described. This device uses a regulated flow of compressed gas to rapidly pressurize cells cultured on flexible substrates, causing a radial stretch injury. […] This stimulus intensity corresponds to the “moderate stretch” [62]. The primary cultured neurons were treated with 0.1, 1, 10, 20, and 50 µM salidroside, respectively, immediately following injury. The cortical neurons cultured in plain medium served as control. Cell viability analysis was performed 24 h after injury.\nThe cell viability was determined by assessing the degree of MTT reduction. Briefly, cells were incubated at 37°C for 2 h with MTT (0.5 mg/mL final concentration; Sigma-Aldrich; St. Louis, MO, USA). Afterwards, a solution of anhydrous isopropanol, HCl (0.1 N), and 0.1% Triton X-100 was added for the dissolution of formazan crystal. The optical density was determined at 570 nm using a microplate reader. Cell viability was expressed as a percentage of the control culture. The experiments were repeated 4 times with different batches of primary cultures."}}, "data": [{"smiles": "OC[C@H]1O[C@@H](OCCc2ccc(O)cc2)[C@H](O)[C@@H](O)[C@@H]1O", "note": "[SALD, salidroside]", "values": [{"measurement": "cytosolic CytoC level compared to vehicle-treated injured brains", "setting": "[1]; day 1, P<0.01", "result": 60.6, "unit": "%"}, {"measurement": "cytosolic CytoC level compared to vehicle-treated injured brains", "setting": "[1]; day 3, P<0.05", "result": 54.7, "unit": "%"}, {"measurement": "cytosolic Smac/DIABLO level compared to vehicle-treated injured brains", "setting": "[2]; day 1", "result": 45.1, "unit": "%"}, {"measurement": "cytosolic Smac/DIABLO level compared to vehicle-treated injured brains", "setting": "[2]; day 3", "result": 58.1, "unit": "%"}, {"measurement": "cell survival after stretch injury (relative to control)", "setting": "[3]; 0.1 µM, P>0.05", "result": "65.3±1.3", "unit": "%"}, {"measurement": "cell survival after stretch injury (relative to control)", "setting": "[3]; 1 µM, P<0.001", "result": "72.5±1.6", "unit": "%"}, {"measurement": "cell survival after stretch injury (relative to control)", "setting": "[3]; 10 µM, P<0.001", "result": "90.9±1.4", "unit": "%"}, {"measurement": "cell survival after stretch injury (relative to control)", "setting": "[3]; 20 µM, P<0.001", "result": "91.4±1.4", "unit": "%"}, {"measurement": "cell survival after stretch injury (relative to control)", "setting": "[3]; 50 µM, P<0.001", "result": "90.5±1.4", "unit": "%"}]}]}
